Each block holds one substance with its values, some of them ahead of it. Bridge positions count the residues as written; N and C are the ends. Square brackets hold non-standard residues; d marks the D form. Ends that are not written are not given here. Dap = NC[C@H](N)C(=O)O
Assays:
secretin receptor = molecular target: T1, secretin receptor (Rattus norvegicus, UniProt P23811); assay: cAMP accumulation in CHO cells expressing the secretin receptor (CHO-SecR); type: cell-based; settings: for potency (cAMP accumulation), relative comparison: secretin receptor (SecR); for agonist activity (stimulation of cAMP accumulation): 30 min at 37° C.
T1 construct: expressed in transfected cells; host or cells: CHO (CHO-SecR)
Description: (§1) FIG. 2 contains a series of graphs plotting accumulation of cAMP versus concentration of polypeptide used to stimulate cells. Presented in panel A are curves of cAMP accumulation in Chinese hamster ovary cells expressing the secretin receptor (CHO-SecR), and in the cells of the parental CHO cell line not expressing the secretin receptor, in response to increasing concentrations of secretin or a synthetic polypeptide (SEQ ID NO:1) corresponding to the region of the amino terminus of the secretin receptor between the first and third conserved cysteine residues, Cys^24 and Cys^53 (corresponding to residues 46 to 75 of GenBank Accession Number AAH81781). Presented in panel B are curves of cAMP accumulation in CHO-SecR cells in response to increasing concentrations of the indicated pentapeptide (SEQ ID NO:3), tripeptides, or dipeptides. Presented in panel C are curves of cAMP accumulation in CHO-SecR cells in response to increasing concentrations of a linear tripeptide, cyclic tripeptides, or a myristolated cyclic tripeptide. Adherent cells that were 75 percent confluent were stimulated with the polypeptide in Krebs-Ringers-HEPES medium for 30 min at 37° C. Cellular cAMP was quantified as previously reported (Holtmann et al., J. Biol. Chem. 270, 14394 (1995)). Values represent means±S.E.M. of data from a minimum of three independent assays performed in duplicate. Myr indicates myristoylated cyclic tripeptide.
It was determined whether a synthetic polypeptide corresponding to the region of the secretin receptor amino terminus between residues 24 and 53 (FIG. 1), which shares no homology with any part of the natural agonist polypeptide, could act as an endogenous agonist ligand. […] The cAMP response was dependent on the concentration of the polypeptide. […] The polypeptide had no effect on cAMP levels in the parental CHO cell line, even at concentrations as high as 100 μM (FIG. 2A).

human GLP1R = human GLP1R (Homo sapiens, UniProt P43220); assay: cAMP accumulation in cells expressing the GLP1R; type: cell-based
Experimental: (§2) FIG. 6 contains a series of graphs plotting cAMP accumulation versus concentration of the WDN tripeptide or amino-terminal polypeptides from the VPAC1 receptor (residues 51-71; SEQ ID NO:4), the calcitonin receptor (residues 73-80; SEQ ID NO:6), and the GLP1R (residues 63-70; SEQ ID NO:22) that were used to stimulate cells expressing Class B receptors as indicated.
Additional experiments were performed and curves were regenerated (FIG. 6), as described herein and as described elsewhere (Dong et al., Mol. Pharmacol., 70(1):206-13 (2006)). […] Each polypeptide used to generate the data presented in FIG. 6 was a cyclic polypeptide, except for the VPAC1(51-71) polypeptide. Linear versions of each polypeptide were also tested and found to behave in a similar manner as the corresponding cyclic polypeptides, with similar potencies and efficacies.

VPAC1 receptor = molecular target: T2, VPAC1 receptor (Rattus norvegicus, UniProt P30083); assay: cAMP accumulation in cells expressing the VPAC1 receptor; type: cell-based
T2 sequence (P30083 31-459): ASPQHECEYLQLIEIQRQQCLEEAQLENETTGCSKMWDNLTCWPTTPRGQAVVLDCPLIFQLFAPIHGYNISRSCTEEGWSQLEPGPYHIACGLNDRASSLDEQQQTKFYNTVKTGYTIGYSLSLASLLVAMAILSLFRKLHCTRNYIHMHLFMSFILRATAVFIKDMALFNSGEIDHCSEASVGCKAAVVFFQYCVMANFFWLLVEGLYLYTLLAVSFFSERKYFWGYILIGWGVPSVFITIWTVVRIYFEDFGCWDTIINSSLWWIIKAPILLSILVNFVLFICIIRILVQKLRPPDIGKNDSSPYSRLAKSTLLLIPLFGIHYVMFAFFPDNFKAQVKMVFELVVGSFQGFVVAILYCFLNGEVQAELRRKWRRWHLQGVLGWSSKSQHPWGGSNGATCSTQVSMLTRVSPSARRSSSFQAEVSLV
Description: (§3) FIG. 4 contains a series of graphs plotting cAMP accumulation versus concentration of amino-terminal polypeptides from the calcitonin (residues 73-80; SEQ ID NO:6) and VPAC1 (residues 51-71; SEQ ID NO:4) receptors that were used to stimulate cells expressing Class B receptors.
as §2
(§4) Polypeptides representing the analogous region of the amino terminus of the Class B G protein-coupled calcitonin and VPAC1 receptors (FIG. 1) were also synthesized. […] The agonist activity of these endogenous polypeptides was not limited to the corresponding receptors. The polypeptides were also active at other structurally-related family members (FIG. 4).
(§5) Additional experiments were performed and curves were regenerated (FIG. 6), as described herein and as described elsewhere (Dong et al., Mol. Pharmacol., 70(1):206-13 (2006)). […] Each polypeptide used to generate the data presented in FIG. 6 was a cyclic polypeptide, except for the VPAC1(51-71) polypeptide. […]

[1] = tested on: Class A G protein-coupled cholecystokinin receptor; assay: cAMP levels in CHO cell lines expressing cholecystokinin receptor; type: cell-based; settings: CHO cell lines expressing high concentrations of cholecystokinin receptor
[2] = tested on: parental CHO cell line not expressing the secretin receptor; assay: cAMP accumulation in parental CHO cell line; type: cell-based, Chinese hamster; settings: concentrations as high as 100 μM
Description: as §1, with “Presented in panel C are curves of cAMP accumulation in CHO-SecR cells in response to increasing concentrations of a linear tripeptide, cyclic tripeptides, or a myristolated cyclic tripeptide. Adherent cells that were 75 percent confluent were stimulated with the polypeptide in Krebs-Ringers-HEPES medium for 30 min at 37° C.” left out, “Values represent means±S.E.M. of data from a minimum of three independent assays performed in duplicate. Myr indicates myristoylated cyclic tripeptide.” left out
It was determined whether a synthetic polypeptide corresponding to the region of the secretin receptor amino terminus between residues 24 and 53 (FIG. 1), which shares no homology with any part of the natural agonist polypeptide, could act as an endogenous agonist ligand. […]

calcitonin receptor = molecular target: T3, calcitonin receptor (Homo sapiens, UniProt P30988); assay: cAMP accumulation in cells expressing the calcitonin receptor; type: cell-based
T3 sequence (P30988 25-474): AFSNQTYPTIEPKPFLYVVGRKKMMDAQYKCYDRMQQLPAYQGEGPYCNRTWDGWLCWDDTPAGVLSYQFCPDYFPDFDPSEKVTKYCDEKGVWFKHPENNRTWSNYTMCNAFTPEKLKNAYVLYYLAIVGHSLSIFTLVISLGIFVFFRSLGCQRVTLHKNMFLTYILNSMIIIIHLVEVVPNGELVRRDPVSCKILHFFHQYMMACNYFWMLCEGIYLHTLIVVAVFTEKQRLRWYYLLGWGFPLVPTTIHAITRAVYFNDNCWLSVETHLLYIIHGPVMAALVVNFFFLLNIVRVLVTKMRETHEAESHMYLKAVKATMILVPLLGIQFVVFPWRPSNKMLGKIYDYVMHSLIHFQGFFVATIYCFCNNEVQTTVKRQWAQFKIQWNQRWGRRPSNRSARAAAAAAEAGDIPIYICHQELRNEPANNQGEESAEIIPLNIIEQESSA
Description: as §3, §4

Class B receptors = assay: cAMP accumulation in cells expressing Class B receptors; type: cell-based; settings: receptors other than the corresponding receptor
Description: as §3, §2, §4, §5

T1 sequence (P23811 26-449): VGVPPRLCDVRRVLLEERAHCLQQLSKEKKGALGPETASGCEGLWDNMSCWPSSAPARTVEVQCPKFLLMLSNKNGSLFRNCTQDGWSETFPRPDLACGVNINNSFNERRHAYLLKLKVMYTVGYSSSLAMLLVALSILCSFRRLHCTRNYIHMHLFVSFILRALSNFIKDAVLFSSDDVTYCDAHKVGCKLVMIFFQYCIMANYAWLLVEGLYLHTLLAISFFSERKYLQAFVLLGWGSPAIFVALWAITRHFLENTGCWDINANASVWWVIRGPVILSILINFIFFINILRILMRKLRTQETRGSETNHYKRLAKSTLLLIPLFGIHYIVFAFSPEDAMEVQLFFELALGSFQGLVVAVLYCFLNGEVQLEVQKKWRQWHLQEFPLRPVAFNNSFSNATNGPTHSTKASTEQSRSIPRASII
human GLP1R, sequence (P43220 24-463 L260F/A316G): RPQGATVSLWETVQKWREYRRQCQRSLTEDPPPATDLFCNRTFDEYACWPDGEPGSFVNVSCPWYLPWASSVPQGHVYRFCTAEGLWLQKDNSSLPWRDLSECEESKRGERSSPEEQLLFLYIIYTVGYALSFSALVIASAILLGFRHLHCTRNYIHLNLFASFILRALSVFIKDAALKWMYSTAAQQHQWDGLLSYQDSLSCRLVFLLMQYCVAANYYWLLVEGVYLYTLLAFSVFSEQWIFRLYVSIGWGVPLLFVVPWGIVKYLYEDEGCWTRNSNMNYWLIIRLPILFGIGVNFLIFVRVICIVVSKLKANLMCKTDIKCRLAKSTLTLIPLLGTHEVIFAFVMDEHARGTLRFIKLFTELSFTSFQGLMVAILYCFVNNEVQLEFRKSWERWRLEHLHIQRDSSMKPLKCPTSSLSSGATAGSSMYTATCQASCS

potency (cAMP accumulation), relative comparison (secretin receptor): further enhanced
Substance: myristoylated cyclic tripeptide: cyclic WDN polypeptide modified by fatty acid acylation (myristoyl group) ([Dap]WDND; lactam N-C; also: myristoyl group, site not given here)

agonist activity (cAMP accumulation) (human GLP1R): active as an agonist
agonist activity (stimulation of cAMP accumulation) (secretin receptor; CHO-SecR cells): active as an agonist
agonist activity (cAMP accumulation) (VPAC1 receptor): active as an agonist
Substance: GLP1R(63-70): polypeptide corresponding to amino acid residues 63 to 70 of the human GLP1R (NRTFDEYA; listed as Homo sapiens)

agonist activity (stimulation of cAMP accumulation) (secretin receptor; CHO-SecR cells): weakly potent agonist
Substance: SecR(24-53): polypeptide corresponding to amino acids 46 to 75 of the rat secretin receptor (SEQ ID NO:1) ([Dap]CLQQLSKEKKGALGPETASGSEGLWDNMSCD; cysteine pairing not given here)
effect on cAMP levels [1]: did not affect cAMP levels
effect on cAMP levels [2]: no effect

Substance: leucine-tryptophan-aspartate-asparagine-methionine [LWDNM]
agonist activity (stimulation of cAMP accumulation) (secretin receptor; CHO-SecR cells): Agonist activity was maintained

agonist activity (cAMP accumulation) (human GLP1R): active as agonists
efficacy (cAMP accumulation) (secretin receptor; CHO-SecR cells): maintained full efficacy
Substance: cyclic WDN (tryptophan-aspartate-asparagine) tripeptide
potency (cAMP accumulation), relative comparison (secretin receptor): enhanced relative to that of the linear polypeptide

agonist activity (cAMP accumulation) (calcitonin receptor): low potency agonist activity
Substance: CTR(73-80): polypeptide corresponding to amino acids 73 to 80 of the human calcitonin receptor ([Dap]NRTWDGWLD; not fully specified (bridges); listed as Homo sapiens)
activity at other structurally-related family members (Class B receptors): also active

agonist activity (cAMP accumulation) (human GLP1R): active as agonists
agonist activity (cAMP accumulation) (VPAC1 receptor): low potency agonist activity
Substance: VPAC1(51-71): polypeptide corresponding to amino acids 51 to 71 of the rat VPAC1 receptor ([Dap]LEEAQLENETTGSSKMWDNLTD; not fully specified (bridges))
activity at other structurally-related family members (Class B receptors): also active

Substance: tryptophan-aspartate-asparagine [linear tripeptide]
agonist activity (stimulation of cAMP accumulation) (secretin receptor; CHO-SecR cells): stimulated cAMP accumulation

From patent publication US20090220997A1, “Stimulating G Protein-Coupled Receptors” (MAYO FOUNDATION FOR MEDICAL EDUCATION AND RESEARCH, priority 2005, published 2009)
